Laboratory results from ChEMBL document CHEMBL5370527, “Hit-to-lead optimization of a pyrazinylpiperazine series against Leishmania infantum and Leishmania braziliensis” (Eur J Med Chem, 2023).
pIC50: −log10 of the molar value.

Assays:
[1] = Selectivity index, ratio of CC50 for cytotoxicity against human THP-1 cells assessed as reduction in cell viability to IC50 for antileishmanial activity against […] stage of Leishmania infantum MHOM/BR/1974/PP75 infected in human THP-1 cells assessed as parasite growth inhibition; type: toxicity, cell-based; conditions: read-out: Ratio CC50/IC50
Leishmania infantum = assay: Antileishmanial activity against […] stage of Leishmania infantum MHOM/BR/1974/PP75 infected in human THP-1 cells assessed as parasite growth inhibition incubated for 72 hrs by microplate reader analysis; type: functional, organism-based; conditions: MHOM/BR/1974/PP75, THP-1, 72 h
Leishmania braziliensis = assay: Antileishmanial activity against […] stage of Leishmania braziliensis MHOM/BR/75/M2904 infected in human THP-1 cells assessed as parasite growth inhibition incubated for 72 hrs by microplate reader analysis; type: functional, organism-based; conditions: MHOM/BR/75/M2904, THP-1, 72 h
[2] = Selectivity index, ratio of CC50 for cytotoxicity against human THP-1 cells assessed as reduction in cell viability to IC50 for antileishmanial activity against […] stage of Leishmania braziliensis MHOM/BR/75/M2904 infected in human THP-1 cells assessed as parasite growth inhibition; type: toxicity, cell-based; conditions: read-out: Ratio CC50/IC50
[3] = Cytotoxicity against human THP-1 cells assessed as reduction in cell viability incubated for 72 hrs by alamarblue staining based analysis; type: toxicity
Trypanosoma cruzi = assay: Antitrypanosomal activity against Trypanosoma cruzi Tulahuen infected in mouse L929 cells assessed as parasite growth inhibition incubated for 96 hrs; type: functional, organism-based; conditions: L929, 96 h
Leishmania donovani [4] = assay: Antileishmanial activity against amastigote form of Leishmania donovani infected in HepG2 cells assessed as inhibition of parasite growth incubated for 72 hrs by Alamar blue staining based assay; type: functional, organism-based; conditions: HepG2, 72 h
Leishmania donovani [5] = assay: Inhibition of Leishmania donovani at 10 uM GSK-3 by kinase glo assay relative to control
[6] = Cytotoxicity against human HepG2 cells assessed as reduction in cell viability incubated for 4 days by celltiter-glo assay; type: toxicity, cell-based; conditions: time 4 day

SMILES | selectivity ratio [1] | pIC50 (Leishmania infantum) | pIC50 (Leishmania braziliensis) | selectivity ratio [2] | CC50 at 72 h [3] | pIC50 (Trypanosoma cruzi) | pIC50 (Leishmania donovani [4]) | inhibition (Leishmania donovani [5]) | CC50 at 96 h [6]
O=C(c1ccc(Cl)nc1)N1CCN(c2cnccn2)CC1 | 184 | 5.72 | 5.00 | 35 | 349 µM | – | – | – | –
O=C(c1ccc(-n2cnnn2)cc1)N1CCN(c2cnccn2)CC1 | 449 | 5.24 | 5.05 | 293 | 2610 µM | < 3.76 | – | – | –
O=C(c1ccc([N+](=O)[O-])cc1)N1CCN(c2cnccn2)CC1 | 13 | 3.66 | 3.79 | 17 | 2810 µM | < 3.76 | – | – | –
N#Cc1ccc(C(=O)N2CCN(c3cnccn3)CC2)cc1 | 81 | 4.80 | 4.64 | 57 | 1290 µM | – | – | – | –
O=C(c1ccc(N2CCCC2)nc1)N1CCN(c2cnccn2)CC1 | 53 | 5.28 | 5.23 | 48 | 280 µM | – | – | – | –
O=C(c1cccnc1)N1CCN(c2cnccn2)CC1 | > 26 | 3.85 | 3.88 | > 28 | > 3710 µM | – | – | – | –
O=C(/C=C/c1ccc(O)c(O)c1)N1CCN(c2cnccn2)CC1 | > 29 | 3.98 | 4.13 | > 41 | > 3060 µM | – | – | – | –
O=C(c1ccc2cc(O)ccc2c1)N1CCN(c2cnccn2)CC1 | 241 | 5.48 | 5.59 | 306 | 796 µM | – | – | – | –
N[C@@H](Cc1ccc(O)cc1)C(=O)N1CCN(c2cnccn2)CC1 | – | 5.48 | 4.16 | 35 | 2410 µM | – | – | – | –
COc1cc(F)ccc1C(=O)N1CCN(c2cnccn2)CC1 | 40 | 4.46 | 4.88 | 104 | 1360 µM | < 3.76 | – | – | –
COc1ccc(S(=O)(=O)N2CCN(c3cnccn3)CC2)cc1 | > 24 | 3.91 | 4.03 | > 32 | > 2990 µM | – | – | – | –
O=C(c1ccc(O)c(Cl)c1)N1CCN(c2cnccn2)CC1 | 46 | 4.92 | 4.93 | 46 | 542 µM | < 3.76 | 6.51 | 1.65% | > 100 µM
O=C(c1ccc(NC2CCCC2)nc1)N1CCN(c2cnccn2)CC1 | 3 | 3.55 | 3.47 | 2 | 763 µM | – | – | – | –
COc1cccc(C(=O)N2CCN(c3cnccn3)CC2)c1OC | 18 | 3.95 | 4.09 | 24 | 2000 µM | – | – | – | –
O=C(c1ccc(O)cc1O)N1CCN(c2cnccn2)CC1 | 20 | 4.66 | 4.72 | 23 | 443 µM | – | – | – | –
O=C(c1cccc(O)c1)N1CCN(c2cnccn2)CC1 | 87 | 4.60 | 4.85 | 156 | 2200 µM | < 3.76 | – | – | –
CC(C)(C)OC(=O)N[C@@H](Cc1ccc(O)cc1)C(=O)N1CCN(c2cnccn2)CC1 | 349 | 5.54 | 5.03 | 108 | 1010 µM | – | – | – | –
O=C(c1ccccc1)N1CCN(c2cnccn2)CC1 | 11 | 4.20 | 4.61 | 29 | 716 µM | < 3.76 | – | – | –
O=C(c1ccc(O)nc1)N1CCN(c2cnccn2)CC1 | 1460 | 3.75 | 3.73 | > 19 | > 3500 µM | – | – | – | –
O=C(c1cc(Cl)ccc1O)N1CCN(c2cnccn2)CC1 | 149 | 4.97 | 5.35 | 357 | 1600 µM | – | – | – | –
C[C@@H]1[C@H](O)[C@@H](C)/C=C/C=C/C=C/C=C/C=C/C=C/C=C/[C@H](O[C@@H]2O[C@H](C)[C@@H](O)[C@H](N)[C@@H]2O)C[C@@H]2O[C@](O)(C[C@@H](O)C[C@@H](O)[C@H](O)CC[C@@H](O)C[C@@H](O)CC(=O)O[C@H]1C)C[C@H](O)[C@H]2C(=O)O [AMPHOTERICIN B] | 1460 | 6.60 | 6.89 | 2800 | 364 µM | – | – | – | –

SMILES | selectivity ratio [1] | pIC50 (Leishmania infantum) | pIC50 (Leishmania braziliensis) | selectivity ratio [2] | CC50 at 72 h [3] | pIC50 (Trypanosoma cruzi) | pIC50 (Leishmania donovani [4]) | inhibition (Leishmania donovani [5]) | CC50 at 96 h [6]
O=C(c1cccc(Cl)c1)N1CCN(c2cnccn2)CC1 | 6 | 3.95 | 4.03 | 7 | 662 µM | < 3.76 | – | – | –
O=C(c1ccc(OC(F)(F)F)cc1)N1CCN(c2cnccn2)CC1 | 115 | 5.12 | 4.76 | 49 | 865 µM | < 3.76 | – | – | –
O=C(c1ccc(O)cc1)N1CCN(c2cnccn2)CC1 | 346 | 5.51 | 5.12 | 141 | 1070 µM | < 3.76 | – | – | –
COc1ccc(C(=O)N2CCN(c3cnccn3)CC2)c(OC)c1 | 18 | 4.58 | 4.51 | 16 | 482 µM | – | – | – | –
Oc1ccc(N2CCN(c3cnccn3)CC2)cc1 | > 89 | 4.36 | 4.57 | > 144 | > 3900 µM | – | – | – | –
Nc1ccc(C(=O)N2CCN(c3cnccn3)CC2)cn1 | 524 | 5.29 | 4.92 | 224 | 2670 µM | – | – | – | –
COc1ccc(C(=O)N2CCN(c3cnccn3)CC2)cc1OC | 13 | 4.26 | 4.47 | 21 | 721 µM | – | – | – | –
O=C(c1ccccn1)N1CCN(c2cnccn2)CC1 | 18 | 4.19 | 4.46 | 32 | 1130 µM | – | – | – | –
O=C(c1ccccc1O)N1CCN(c2cnccn2)CC1 | 45 | 4.23 | 4.07 | 31 | 2620 µM | < 3.76 | – | – | –
O=C(c1ccc(F)cc1O)N1CCN(c2cnccn2)CC1 | 80 | 4.85 | 4.59 | 44 | 1130 µM | – | – | – | –
COc1ccc(Cl)cc1C(=O)N1CCN(c2cnccn2)CC1 | – | 4.56 | 5.11 | 130 | 1010 µM | < 3.76 | – | – | –
O=S(=O)(c1ccc(O)cc1)N1CCN(c2cnccn2)CC1 | 16 | 3.80 | 3.95 | 22 | 2510 µM | – | – | – | –
O=C(c1cccc(C(F)(F)F)n1)N1CCN(c2cnccn2)CC1 | 0.2 | 2.13 | 2.45 | 0.5 | 1700 µM | < 3.76 | – | – | –
O=C(N1CCN(c2cnccn2)CC1)n1ccnc1 | 438 | 5.14 | 5.04 | 347 | 3190 µM | – | – | – | –
O=C(c1cccc(O)c1O)N1CCN(c2cnccn2)CC1 | > 1190 | 5.55 | 6.70 | > 16600 | > 3330 µM | – | – | – | –
O=C(c1ccc(O)c(O)c1)N1CCN(c2cnccn2)CC1 | 407 | 5.46 | 5.03 | 151 | 1420 µM | – | – | – | –
O=C(c1ccc(O)cn1)N1CCN(c2cnccn2)CC1 | > 27 | 3.89 | 4.03 | > 37 | > 3500 µM | – | – | – | –
O=C(c1ccc(C(F)(F)F)nc1)N1CCN(c2cnccn2)CC1 | 298 | 4.45 | 4.49 | 327 | 10500 µM | < 3.76 | – | – | –
COc1ccc(C(=O)N2CCN(c3cnccn3)CC2)cn1 | 231 | 5.21 | 4.76 | 82 | 1430 µM | – | – | – | –
O=C(c1ccc(C(F)(F)F)cc1)N1CCN(c2cnccn2)CC1 | 5 | 4.07 | 4.25 | 8 | 421 µM | < 3.76 | – | – | –
COc1ccc(C(=O)N2CCN(c3cnccn3)CC2)cc1 | 422 | 5.35 | 5.00 | 188 | 1900 µM | < 3.76 | – | – | –
